Source: patent publication EP1091938B1, “ANTIHISTAMINIC PIPERIDINE DERIVATIVES AND INTERMEDIATES FOR THE PREPARATION THEREOF” (Aventisub II Inc., priority 1998, dated 2000)

Columns and labels:
[1] = extent of first pass metabolism to two primary metabolites; cited from earlier work
[2] = biological target: T1, H1-histaminergic receptors (Rattus norvegicus, UniProt P31390); assay: [3H] pyrilamine binding in rat cortex membranes; settings: displacement of 3H pyrilamine (2 nM final), rat cortex homogenate, 30 minute incubation at room temperature; Ki from IC50 with the Cheng-Prusoff equation
T1 construct: The brains of young male rats are removed; The cortici are dissected; from tissue; host or cells: rat brain cortex membrane homogenate
T1 sequence (P31390 whole entry): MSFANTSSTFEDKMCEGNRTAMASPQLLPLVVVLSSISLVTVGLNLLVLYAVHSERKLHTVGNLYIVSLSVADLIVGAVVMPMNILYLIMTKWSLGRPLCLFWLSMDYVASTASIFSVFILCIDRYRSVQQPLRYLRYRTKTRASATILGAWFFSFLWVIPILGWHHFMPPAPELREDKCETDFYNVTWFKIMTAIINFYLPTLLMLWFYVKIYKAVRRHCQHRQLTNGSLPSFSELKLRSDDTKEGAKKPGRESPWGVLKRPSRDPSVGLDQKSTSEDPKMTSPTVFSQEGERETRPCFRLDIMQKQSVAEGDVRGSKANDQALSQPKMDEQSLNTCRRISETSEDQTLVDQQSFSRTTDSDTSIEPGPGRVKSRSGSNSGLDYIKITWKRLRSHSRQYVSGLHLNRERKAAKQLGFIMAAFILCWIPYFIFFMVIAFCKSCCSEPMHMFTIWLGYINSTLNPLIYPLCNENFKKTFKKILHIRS
Description: Antihistaminic potential is measured by affinity of a test compound for [^3H] pyrilamine binding sites associated with the antagonist component of H1-histaminergic receptors in animal brain membranes. Affinity for this receptor is indicative of the potential of a test compound to interact with central and peripheral H1-histaminergic receptors.
The following method is used to determine the affinity of test compounds for [^3H] pyrilamine binding sites in rat cortex.
The brains of young male rats are removed. The cortici are dissected and stored at -20°C or immediately used. The tissue is homogenized in 10 ml of ice-cold […] K/NaPO4 buffer (pH 7.4) using a Polytron (setting 6 for 15 seconds). […]
The brains of young male rats are removed. […] The filters are either transferred to scintillation vials and 10 ml Quicksafe A is added for liquid scintillation spectrometry or a thin layer of solid scintillant is melted onto the filters and the filters then counted using a betaplate beta counter. Specific binding of ^3H pyrilamine is measured as the excess over blanks taken in the presence of 2.10-6 M promethazine. Protein content of the membranes is determined by the method of Lowry et al., J. Biol. Chem. 193, 265-275 (1951). Displacement curves are analyzed using the GraphPad (GraphPad Software, Inc.) or similar program to obtain Hill slopes and IC50 values. […]

Ki [2]	Structure (SMILES)	first pass metabolism [1]
	CC(C)(C)c1ccc(C(O)CCCN2CCC(C(O)(c3ccccc3)c3ccccc3)CC2)cc1 (stereo not drawn) [Terfenadine, α-[4-(1,1-dimethylethyl)phenyl]-4-(hydroxydiphenylmethyl)-1-piperidinebutanol]	99%
360 nM	CC(CO)(C(=O)O)c1ccc(C(O)CCCN2CCC(C(O)(c3ccccc3)c3ccccc3)CC2)cc1 (stereo not drawn) [4-[1-hydroxy-4-[4-(hydroxydiphenylmethyl)-1-piperidinyl]butyl]-α-(hydroxymethyl)-α-methyl-benzeneacetic acid]	
